Results from patent US20050054027A1 (priority 2003, published 2005).
Counter-ions that a name gives are not always drawn.

Tested on: TMPRSS6
Assay: Inhibition of TMPRSS6 protease activity (cleavage of fluorogenic substrate Ac-RKFK-acc)
Assay type: biochemical, human
Settings: 2 nM enzyme, 15 min preincubation at room temperature, inhibition constant only in FIG. 4
Description: The putative catalytic domain of TMPRSS6 minus the pro region was cloned into pFastBac1 (Invitrogen) from a human cDNA library. […] The vector also contains a C-terminal 6His tag to facilitate purification and an N-terminal honeybee melittin secretion signal. Recombinant bacmid was produced using Bac-to-Bac transposition technology (Invitrogen). Sf9 cells (Invitrogen) were then transfected with recombinant bacmid to produce rAcNPV.
Protease activity of the purified TMPRSS6 was assessed by monitoring the accumulation of the fluorophore 7-amino-4-carbamoylmethylcoumarin (acc) produced by the cleavage of the tetrapeptide substrate Ac-RKFK-acc in assay buffer (50 mM Tris-Cl pH 7.4, 200 mM NaCl, 2 mM CaCl2, 0.01% Tween 20) at 37 C. Data was collected with a Gemini EM plate reader (Molecular Devices) at λex=380 nm and λem=450 nm.
A 1 mM DMSO solution of camostat mesylate was diluted serially 1:3 in DMSO to a final concentration of 5.6 nM. The TMPRSS6 enzyme was diluted in assay buffer to 2 nM. 1 μl of each camostat dilution was added to 98 μl of the enzyme mixture in a 96 well assay plate (Dynex). The plate was incubated for 15 min at room temperature to allow equilibrium to take place between the enzyme and inhibitor. Afterward, 1 μl of a 1 mM solution of a substrate, Ac-RKFK-acc, was added to each well. […] The inhibition constant was calculated using Prism (GraphPad).

`CN(C)C(=O)COC(=O)Cc1ccc(OC(=O)c2ccc(NC(=N)N)cc2)cc1` [camostat mesylate] was tested, and the “inhibition of TMPRSS6 protease activity” value was “inhibited”.
